Experimental data: patent US11395489B2, “Microbiocidal picolinamide derivatives” (Syngenta Participations AG, priority 2017, dated 2022)

Tests used:
[1] = test system: Botryotinia fuckeliana (Botrytis cinerea); assay: Botryotinia fuckeliana (Botrytis cinerea) / liquid culture (Gray Mould); type: cell-based; details: 72 h, 200 ppm in the formulation, inhibition of growth determined photometrically 3-4 days after application, read-out: disease control
Method: (§1) Botryotinia fuckeliana (Botrytis cinerea)/Liquid Culture (Gray Mould) Conidia of the fungus from cryogenic storage are directly mixed into nutrient broth (Vogels broth). After placing a (DMSO) solution of test compound into a microtiter plate (96-well format), the nutrient broth containing the fungal spores is added. The test plates are incubated at 24° C. and the inhibition of growth is determined photometrically 3-4 days after application.

[2] = test system: Phaeosphaeria Nodorum (Septoria nodorum); assay: Phaeosphaeria nodorum (Septoria nodorum) / wheat / leaf disc preventative (Glume Blotch); type: in vivo; details: Parastagonospora nodorum, foliar, 200 ppm in the formulation, compared to untreated, 5-7 days after application, read-out: disease control
Method: Phaeosphaeria Nodorum (Septoria nodorum)/Wheat/Leaf Disc Preventative (Glume Blotch) Wheat leaf segments cv. Kanzler are placed on agar in a multiwell plate (24-well format) and sprayed with the formulated test compound diluted in water. The leaf disks are inoculated with a spore suspension of the fungus 2 days after application. The inoculated test leaf disks are incubated at 20° C. and 75% rh under a light regime of 12 h light/12 h darkness in a climate cabinet and the activity of a compound is assessed as percent disease control compared to untreated when an appropriate level of disease damage appears in untreated check leaf disks (5-7 days after application).

[3] = test system: Monocraphella nivalis (Microdochium nivale); assay: Monocraphella nivalis (Microdochium nivale) / liquid culture (Foot Rot Cereals); type: cell-based; details: 96 h, 200 ppm in the formulation, inhibition of growth determined photometrically 4-5 days after application, read-out: disease control
Method: as §1, with “Monocraphella nivalis (Microdochium nivale)/Liquid” for “Botryotinia fuckeliana (Botrytis cinerea)/Liquid”, “(Foot Rot Cereals)” for “(Gray Mould)”, “(PDB potato dextrose” for “(Vogels”, “4-5” for “3-4”

[4] = test system: Mycosphaerella arachidis (Cercospora arachidicola); assay: Mycosphaerella arachidis (Cercospora arachidicola) / liquid culture (Early Leaf Spot); type: cell-based; details: 96 h, 200 ppm in the formulation, inhibition of growth determined photometrically 4-5 days after application, read-out: disease control
Method: as §1, with “Mycosphaerella arachidis (Cercospora arachidicola)/Liquid” for “Botryotinia fuckeliana (Botrytis cinerea)/Liquid”, “(Early Leaf Spot)” for “(Gray Mould)”, “(PDB potato dextrose” for “(Vogels”, “4-5” for “3-4”

[5] = test system: Mycosphaerella Raminicola (Septoria tritici); assay: Mycosphaerella Raminicola (Septoria tritici) / liquid culture (Septoria Blotch); type: cell-based; details: 200 ppm in the formulation, inhibition of growth determined photometrically 4 to 5 days after application, read-out: disease control
Method: as §1, with “Mycosphaerella Raminicola (Septoria tritici)/Liquid” for “Botryotinia fuckeliana (Botrytis cinerea)/Liquid”, “(Septoria Blotch)” for “(Gray Mould)”, “(PDB potato dextrose” for “(Vogels”, “4 to 5” for “3-4”

[6] = test system: Puccinia recondita f. Sp. Tritici; assay: Puccinia recondita f. sp. tritici / wheat / leaf disc preventative (Brown Rust); type: in vivo; details: foliar, 168 h, 200 ppm in the formulation, compared to untreated, 7-9 days after application, read-out: disease control
[7] = test system: Magnaporthe risea (Pyricularia Oryzae); assay: whole plant or invertebrate; type: in vivo; details: foliar, read-out: disease control
[8] = test system: Glomerella lacenarium (Colletotrichum lacenarium); assay: Glomerella lacenarium (Colletotrichum lacenarium) / liquid culture (Anthracnose); type: cell-based; details: 200 ppm in the formulation, inhibition of growth measured photometrically 3-4 days after application, read-out: disease control
Method: as §1, with “Glomerella lacenarium (Colletotrichum lacenarium)/Liquid” for “Botryotinia fuckeliana (Botrytis cinerea)/Liquid”, “(Anthracnose)” for “(Gray Mould)”, “(PDB potato dextrose” for “(Vogels”, “measured” for “determined”

COc1ccnc(C(=O)N[C@@H](C)C(=O)OC(C)C(C)(C)c2ccccc2)c1O (stereo partly drawn) [I.a.001, (1,2-dimethyl-2-phenyl-propyl) (2S)-2-[(3-hydroxy-4-methoxy-pyridine-2-carbonyl)amino]propanoate]
≥ 80%: inhibition of growth at 200 ppm [1] | pest or weed control at 200 ppm [2] | inhibition of growth at 200 ppm [3] | inhibition of growth at 200 ppm [4] | inhibition of growth at 200 ppm [5] | pest or weed control at 200 ppm [6]

COc1ccnc(C(=O)N[C@@H](C)C(=O)OC(C)C2(c3ccccc3)CC2)c1O (stereo partly drawn) [I.a.006, 1-(1-phenylcyclopropyl)ethyl (2S)-2-[(3-hydroxy-4-methoxy-pyridine-2-carbonyl)amino]propanoate]
≥ 80%: inhibition of growth at 200 ppm [1] | pest or weed control at 200 ppm [7] | inhibition of growth at 200 ppm [3] | inhibition of growth at 200 ppm [4] | inhibition of growth at 200 ppm [5] | pest or weed control at 200 ppm [6]

COc1ccnc(C(=O)N[C@@H](C)C(=O)OC(C)C2(c3cccc(Br)c3)CC2)c1O (stereo partly drawn) [I.d.006, 1-[1-(3-bromophenyl)-cyclopropyl]ethyl (2S)-2-[(3-hydroxy-4-methoxy-pyridine-2-carbonyl)amino]propanoate]
≥ 80%: inhibition of growth at 200 ppm [1] | inhibition of growth at 200 ppm [3] | inhibition of growth at 200 ppm [4] | inhibition of growth at 200 ppm [5] | inhibition of growth at 200 ppm [8] | pest or weed control at 200 ppm [6]

COc1ccnc(C(=O)N[C@@H](C)C(=O)OC(C)C(C)(C)c2ccc(F)cc2)c1O (stereo partly drawn) [I.j.001, [2-(4-fluorophenyl)-1,2-dimethyl-propyl] (2S)-2-[(3-hydroxy-4-methoxy-pyridine-2-carbonyl)-amino]propanoate]
≥ 80%: inhibition of growth at 200 ppm [1] | inhibition of growth at 200 ppm [3] | inhibition of growth at 200 ppm [4] | inhibition of growth at 200 ppm [5] | inhibition of growth at 200 ppm [8] | pest or weed control at 200 ppm [6]

COc1ccnc(C(=O)N[C@@H](C)C(=O)OC(C)C2(c3ccc(F)cc3)CC2c2ccccc2)c1O (stereo partly drawn) [I.j.010, 1-[1-(4-fluorophenyl)-2-phenyl-cyclopropyl]-ethyl (2S)-2-[(3-hydroxy-4-methoxy-pyridine-2-carbonyl)-amino]propanoate]
≥ 80%: inhibition of growth at 200 ppm [4] | inhibition of growth at 200 ppm [5] | inhibition of growth at 200 ppm [8] | pest or weed control at 200 ppm [6]

COc1ccnc(C(=O)N[C@@H](C)C(=O)OC(C)C2(c3ccc(F)cc3)CC2c2ccc(F)cc2)c1O (stereo partly drawn) [I.j.011, 1-[1,2-bis(4-fluoro-phenyl)cyclopropyl]-ethyl (2S)-2-[(3-hydroxy-4-methoxy-pyridine-2-carbonyl)-amino]propanoate]
≥ 80%: inhibition of growth at 200 ppm [3] | inhibition of growth at 200 ppm [4] | inhibition of growth at 200 ppm [5] | inhibition of growth at 200 ppm [8] | pest or weed control at 200 ppm [6]

COc1ccnc(C(=O)N[C@@H](C)C(=O)OC(C)C2(c3ccc(Cl)cc3)CC2)c1O (stereo partly drawn) [I.k.006, 1-[1-(4-chlorophenyl)-cyclopropyl]ethyl (2S)-2-[(3-hydroxy-4-methoxy-pyridine-2-carbonyl)amino]propanoate]
≥ 80%: inhibition of growth at 200 ppm [1] | pest or weed control at 200 ppm [2] | inhibition of growth at 200 ppm [3] | inhibition of growth at 200 ppm [4] | inhibition of growth at 200 ppm [5] | pest or weed control at 200 ppm [6]

COc1ccnc(C(=O)N[C@@H](C)C(=O)OC(C)C2(c3ccc(Cl)cc3)CCCC2)c1O (stereo partly drawn) [I.k.014, 1-[1-(4-chlorophenyl)-cyclopentyl]ethyl (2S)-2-[(3-hydroxy-4-methoxy-pyridine-2-carbonyl)amino]propanoate]
≥ 80%: inhibition of growth at 200 ppm [1] | pest or weed control at 200 ppm [7] | inhibition of growth at 200 ppm [3] | inhibition of growth at 200 ppm [4] | inhibition of growth at 200 ppm [5] | inhibition of growth at 200 ppm [8] | pest or weed control at 200 ppm [6]

COc1ccnc(C(=O)N[C@@H](C)C(=O)OC(C)C2(c3ccc(Br)cc3)CCC2)c1O (stereo partly drawn) [I.m.012, 1-[1-(4-bromophenyl)-cyclobutyl]ethyl (2S)-2-[(3-hydroxy-4-methoxy-pyridine-2-carbonyl)amino]propanoate]
≥ 80%: inhibition of growth at 200 ppm [1] | pest or weed control at 200 ppm [7] | inhibition of growth at 200 ppm [3] | inhibition of growth at 200 ppm [4] | inhibition of growth at 200 ppm [5] | inhibition of growth at 200 ppm [8] | pest or weed control at 200 ppm [6]

COc1ccnc(C(=O)N[C@@H](C)C(=O)OC(C)C2(c3ccc(OC(F)(F)F)cc3)CC2)c1O (stereo partly drawn) [I.q.006, 1-[1-[4-(trifluoro-methoxy)phenyl]cyclo-propyl]ethyl (2S)-2-[(3-hydroxy-4-methoxy-pyridine-2-carbonyl)amino]propanoate]
≥ 80%: inhibition of growth at 200 ppm [1] | pest or weed control at 200 ppm [7] | inhibition of growth at 200 ppm [3] | inhibition of growth at 200 ppm [4] | inhibition of growth at 200 ppm [5] | inhibition of growth at 200 ppm [8] | pest or weed control at 200 ppm [6]

COc1ccnc(C(=O)N[C@@H](C)C(=O)OC(C)C2(c3ccc(Cl)c(Cl)c3)CC2)c1O (stereo partly drawn) [I.t.006, 1-[1-(3,4-dichloro-phenyl)cyclopropyl]-ethyl (2S)-2-[(3-hydroxy-4-methoxy-pyridine-2-carbonyl)-amino]propanoate]
≥ 80%: inhibition of growth at 200 ppm [1] | pest or weed control at 200 ppm [7] | inhibition of growth at 200 ppm [3] | inhibition of growth at 200 ppm [4] | inhibition of growth at 200 ppm [5] | inhibition of growth at 200 ppm [8] | pest or weed control at 200 ppm [6]

CCOc1ccc(C2(C(C)OC(=O)[C@H](C)NC(=O)c3nccc(OC)c3O)CC2(F)F)cc1 (stereo partly drawn) [I.u.007, 1-[1-(4-ethoxyphenyl)-2,2-difluorocyclopropyl]-ethyl (2S)-2-[(3-hydroxy-4-methoxy-pyridine-2-carbonyl)amino]propanoate]
≥ 80%: inhibition of growth at 200 ppm [1] | pest or weed control at 200 ppm [7] | inhibition of growth at 200 ppm [3] | inhibition of growth at 200 ppm [5] | inhibition of growth at 200 ppm [8] | pest or weed control at 200 ppm [6]

COc1ccnc(C(=O)N[C@@H](C)C(=O)OC(C)C2(c3cccc4ccccc34)CC2)c1O (stereo partly drawn) [I.v.006, 1-[1-(1-naphthyl)cyclo-propyl]ethyl (2S)-2-[(3-hydroxy-4-methoxy-pyridine-2-carbonyl)-amino]propanoate]
≥ 80%: pest or weed control at 200 ppm [2] | inhibition of growth at 200 ppm [3] | inhibition of growth at 200 ppm [4] | inhibition of growth at 200 ppm [5] | inhibition of growth at 200 ppm [8] | pest or weed control at 200 ppm [6]

COc1ccnc(C(=O)N[C@@H](C)C(=O)OC(C)C2(c3cccc4ccccc34)CC2c2ccccc2)c1O (stereo partly drawn) [I.v.010, 1-[1-(1-naphthyl)-2-phenyl-cyclopropyl]-ethyl (2S)-2-[(3-hydroxy-4-methoxy-pyridine-2-carbonyl)-amino]propanoate]
≥ 80%: inhibition of growth at 200 ppm [4] | inhibition of growth at 200 ppm [5] | inhibition of growth at 200 ppm [8] | pest or weed control at 200 ppm [6]

COc1ccnc(C(=O)N[C@@H](C)C(=O)OC(C)C2(c3cccc4ccccc34)CC2c2ccc(F)cc2)c1O (stereo partly drawn) [I.v.011, 1-[2-(4-fluorophenyl)-1-(1-naphthyl)cyclo-propyl]ethyl (2S)-2-[(3-hydroxy-4-methoxy-pyridine-2-carbonyl)amino]-propanoate]
≥ 80%: inhibition of growth at 200 ppm [4] | inhibition of growth at 200 ppm [5] | inhibition of growth at 200 ppm [8] | pest or weed control at 200 ppm [6]
